Laboratory results as given in patent publication US8623429B2, “Stabilized anthocyanin compositions” (Omnica GmbH, priority 2007, dated 2014).

What was measured:
[1] = Example 1: stability of bilberry extract anthocyanosides, 4 hours at 37° C., pH 7.0, with/without DHLA or GSH (HPLC); format: physicochemical; conditions: for % left, GSH (4 hours) / Peak Area, GSH (4 hours): 20 mg reduced L-glutathione; for % left, GSH (4 hours) / Peak Area, GSH (4 hours) / % left, DHLA (4 hours) / Peak Area, DHLA (4 hours) / % left, Blank (4 hours) / Peak Area, Blank (4 hours): pH 7.0, 37° C.; for % left, DHLA (4 hours) / Peak Area, DHLA (4 hours): 30 mg dihydrolipoic acid; for Peak Area, Fresh (0 hours): bilberry extract 60 mg/100 ml sodium phosphate buffer pH 7.0, fresh sample; for % left, Blank (4 hours) / Peak Area, Blank (4 hours): unprotected
[2] = Example 2: degradation over time of selected bilberry anthocyanosides at 37° C., pH 7.0, with/without GSH (HPLC); format: physicochemical; conditions: pH 7.0, 37° C.; for %-residual anthocyanosides (% left): 4.30 hours
Procedure: Sample a) 60 mg bilberry extract [37% anthocyanosides] (0.048 mmol expressed as cyanidin-3-O-glucoside) were added to a 100 ml, filled to volume with sodium phosphate buffer (5% [w/w], pH=7.0) and stirred until dissolution was complete. A 1 ml sample was immediately taken and acidified with formic acid to pH=1.0 and analyzed by HPLC for the content of anthocyanosides. The remaining solution was kept at 37° C. (water bath) with stirring and additional 1 ml samples (Blank Samples), representing unprotected degradation, were sampled every 15 minutes. The samples were analyzed for selected anthocyanosides by HPLC.
Sample b) 20 mg reduced L-glutathione (0.065 mmol) were added to a 100 ml flask with 60 ml sodium phosphate buffer (5% [w/w], pH=7.0) and stirred until dissolution was complete. 60 mg bilberry extract [37% anthocyanosides] (0.048 mmol expressed as cyanidin-3-O-glucoside) were added and the flask was filled to volume with sodium phosphate buffer (5% [w/w], pH=7.0) and kept at 37° C. (water bath) with stirring. Every 15 minutes, 1 ml samples were taken and analyzed for selected anthocyanosides by HPLC.
Samples were prepared as outlined below in HPLC Analytical Method. Test stability samples were immediately acidified (to block degradation) and injected undiluted following the detailed description provided below.
HPLC Analytical Method (Materials, Instruments and Methods): […]

Compound: COc1cc(-c2[o+]c3cc(O)cc(O)c3cc2OC2OC(CO)C(O)C(O)C2O)cc(O)c1O (stereo not drawn) [Pt-3O-Gal, Petunidin 3-o-galactoside]
- % left, GSH (4 hours) [1]: 69.3%
- Peak Area, GSH (4 hours) [1]: 150.0
- % left, DHLA (4 hours) [1]: 61.4%
- Peak Area, DHLA (4 hours) [1]: 132.8
- Peak Area, Fresh (0 hours) [1]: 216.4
- % left, Blank (4 hours) [1]: 18.8%
- Peak Area, Blank (4 hours) [1]: 40.7
- Peak Area ([2]; Blank Sample, 1:15 h): 124.16
- Peak Area ([2]; Blank Sample, 4:15 h): 102.44
- Peak Area ([2]; Blank Sample, 4:30 h): 58.78
- Peak Area ([2]; Blank sample, 0:00 h): 237.44
- Peak Area ([2]; Blank sample, 0:15 h): 179.60
- Peak Area ([2]; Blank sample, 0:30 h): 203.39
- Peak Area ([2]; Blank sample, 0:45 h): 152.46
- Peak Area ([2]; Blank sample, 1:00 h): 161.49
- Peak Area ([2]; Blank sample, 1:45 h): 144.59
- Peak Area ([2]; Blank sample, 2:00 h): 132.38
- Peak Area ([2]; Blank sample, 2:15 h): 121.96
- Peak Area ([2]; Blank sample, 2:30 h): 96.36
- Peak Area ([2]; Blank sample, 2:45 h): 99.38
- Peak Area ([2]; Blank sample, 3:00 h): 127.47
- Peak Area ([2]; Blank sample, 3:15 h): 123.02
- Peak Area ([2]; Blank sample, 3:30 h): 98.72
- Peak Area ([2]; Blank sample, 4:00 h): 107.51
- %-residual anthocyanosides (% left) ([2]; Blank): 25%
- Peak Area ([2]; GSH Protected Sample (20 mg), 0:30 h): 222.35
- Peak Area ([2]; GSH Protected Sample (20 mg), 1:30 h): 202.34
- Peak Area ([2]; GSH Protected Sample (20 mg), 2:30 h): 169.36
- Peak Area ([2]; GSH Protected Sample (20 mg), 3:30 h): 181.53
- Peak Area ([2]; GSH Protected Sample (20 mg), 4:30 h): 181.46
- Peak Area ([2]; GSH Protected Sample (20 mg), 4:45 h): 166.84
- Peak Area ([2]; GSH protected sample (20 mg), 0:00 h): 248.16
- Peak Area ([2]; GSH protected sample (20 mg), 0:15 h): 245.04
- Peak Area ([2]; GSH protected sample (20 mg), 0:45 h): 195.63
- Peak Area ([2]; GSH protected sample (20 mg), 1:00 h): 213.84
- Peak Area ([2]; GSH protected sample (20 mg), 1:15 h): 210.34
- Peak Area ([2]; GSH protected sample (20 mg), 1:45 h): 194.88
- Peak Area ([2]; GSH protected sample (20 mg), 2:00 h): 193.23
- Peak Area ([2]; GSH protected sample (20 mg), 2:15 h): 199.06
- Peak Area ([2]; GSH protected sample (20 mg), 2:45 h): 183.97
- Peak Area ([2]; GSH protected sample (20 mg), 3:00 h): 189.41
- Peak Area ([2]; GSH protected sample (20 mg), 3:15 h): 185.92
- Peak Area ([2]; GSH protected sample (20 mg), 3:45 h): 173.03
- Peak Area ([2]; GSH protected sample (20 mg), 4:00 h): 193.79
- Peak Area ([2]; GSH protected sample (20 mg), 4:15 h): 179.46
- %-residual anthocyanosides (% left) ([2]; GSH-protected): 67%
- %-residual anthocyanosides (% left) ([2]; GSH-protected, listed as petunidin-3-O-Galactose): 67%

Compound: COc1cc(-c2[o+]c3cc(O)cc(O)c3cc2O[C@@H]2O[C@H](CO)[C@@H](O)[C@H](O)[C@H]2O)cc(O)c1O [Pt-3O-Glc, Petunidin 3-o-glucoside]
- % left, GSH (4 hours) [1]: 66.7%
- Peak Area, GSH (4 hours) [1]: 315.6
- % left, DHLA (4 hours) [1]: 57.4%
- Peak Area, DHLA (4 hours) [1]: 271.9
- Peak Area, Fresh (0 hours) [1]: 473.4
- % left, Blank (4 hours) [1]: 16.6%
- Peak Area, Blank (4 hours) [1]: 78.8
